# Article PMC6896057, “Dual PDK1/Aurora Kinase A Inhibitors Reduce Pancreatic Cancer Cell Proliferation and Colony Formation” (Cancers, 2019)
# What was measured:
# Format in all cases: cell-based, human
# [1] = test system: PLCγ1 Tyr783 phosphorylation in HPAF-II; experiment: Western blot, EGF-induced phosphorylation of PLCγ1 at Tyr783; settings: 5 μM, 30 min, then EGF 25 ng/mL 10 min
# Description: (§1) Lysates were then assessed by Western blotting using the indicated antibodies. Representative blots of at least three independent experiments are shown. The percentage of phosphorylated PLCγ1 is calculated by normalization to the loading control GAPDH. […] The percentage of phosphorylated PLK1 is calculated by normalization to the loading control α-actinin. […] The percentage of phosphorylated Histone H3 is calculated by normalization to the loading control α-actinin.
# (§2) Cells (300,000 per well) from different cell lines were seeded in six-well plates. The next day, five wells were stimulated with nocodazole 200 ng/mL for 24 h. Then four wells were treated for 2 h with the inhibitors of interest. To analyze the expression of phosphorylated PLCγ, cells were incubated overnight in serum-free culture media. […] Cells were then collected by scraping and lysed in cold radioimmunoprecipitation assay buffer (150 mM sodium chloride, 1.0% NP-40 or Triton X-100, 0.5% sodium deoxycholate, 0.1% sodium dodecyl sulphate, 50 mM Tris HCl, pH 8.0) supplemented with 1X Protease/Phosphatase Inhibitor Cocktail (100X stock, Sigma Aldrich, St. Louis, MO, USA). […] Supernatants were transferred in a 1.5 mL Eppendorf tube and protein concentrations were determined using the Direct Detect Assay-Free cards and the Direct Detect Spectrometer (Merck Millipore, Decantur, IL, USA). […]
# [2] = test system: PLCγ1 Tyr783 phosphorylation in AsPC-1; experiment: as above; settings: 5 μM, 30 min, then EGF 25 ng/mL 10 min
# Description: as §1, §2
# [3] = test system: phosphorylation of Akt at Thr308 in AsPC-1; experiment: Western blot, FBS-induced phosphorylation of Akt at Thr308; settings: 5 μM, FBS 1 h
# Description: (§3) Lysates were then assessed by Western blotting using the indicated antibodies. Representative blots of at least three independent experiments are shown. In all blots, Akt total (A,B) and α-actinin (C,D) were used as loading control. In (A,B) membranes incubated with pAkt (Thr308) were stripped and re-incubated with anti Akt. The percentage of phosphorylated Akt is calculated by normalization to the loading control total Akt. In (C,D) membranes incubated with pAurora (Thr288) were stripped and re-incubated with anti-Aurora A. The percentage of phosphorylated Aurora A is calculated by normalization to the loading control α-actinin.
# (§4) Cells (300,000 per well) from different cell lines were seeded in six-well plates. The next day, five wells were stimulated with nocodazole 200 ng/mL for 24 h. Then four wells were treated for 2 h with the inhibitors of interest. To analyze the expression of phosphorylated PLCγ, cells were incubated overnight in serum-free culture media. […] Supernatants were transferred in a 1.5 mL Eppendorf tube and protein concentrations were determined using the Direct Detect Assay-Free cards and the Direct Detect Spectrometer (Merck Millipore, Decantur, IL, USA). […]
# [4] = test system: phosphorylation of Akt at Thr308 in HPAF-II; experiment: as above; settings: 5 μM, FBS 1 h
# Description: as §3, §4
# [5] = test system: PLK1 Thr210 phosphorylation in AsPC-1; experiment: Western blot, phosphorylation of PLK1 at Thr210, nocodazole-synchronized cells; settings: 5 μM, 1 h, nocodazole 200 ng/mL
# Description: as §1
# (§5) Cells (300,000 per well) from different cell lines were seeded in six-well plates. The next day, five wells were stimulated with nocodazole 200 ng/mL for 24 h. […] To analyze the expression of phosphorylated PLCγ, cells were incubated overnight in serum-free culture media. […] Cells were then collected by scraping and lysed in cold radioimmunoprecipitation assay buffer (150 mM sodium chloride, 1.0% NP-40 or Triton X-100, 0.5% sodium deoxycholate, 0.1% sodium dodecyl sulphate, 50 mM Tris HCl, pH 8.0) supplemented with 1X Protease/Phosphatase Inhibitor Cocktail (100X stock, Sigma Aldrich, St. Louis, MO, USA). Lysates were sonicated at 4 °C and centrifuged at 10,000 g for 10 min at 4 °C. Supernatants were transferred in a 1.5 mL Eppendorf tube and protein concentrations were determined using the Direct Detect Assay-Free cards and the Direct Detect Spectrometer (Merck Millipore, Decantur, IL, USA). […]
# [6] = test system: PLK1 Thr210 phosphorylation in HPAF-II; experiment: as above; settings: 5 μM, 1 h, nocodazole 200 ng/mL
# Description: as §1, §5
# [7] = test system: phosphorylation of Aurora A at Thr288 in HPAF-II; experiment: Western blot, Aurora A phosphorylation at Thr288, nocodazole-synchronized cells; settings: 10 µM, 1 h, nocodazole 200 ng/mL
# Description: as §3
# as §4, with “Then four wells were treated for 2 h with the inhibitors of interest.” left out
# [8] = test system: phosphorylation of Aurora A at Thr288 in AsPC-1; experiment: as above; settings: 10 µM, 1 h, nocodazole 200 ng/mL
# Description: as §3
# as §4, with “Then four wells were treated for 2 h with the inhibitors of interest.” left out
SMILES,effect on EGF-induced activation of PLCγ1 (Tyr783) [1],effect on EGF-induced activation of PLCγ1 (Tyr783) [2],effect on FBS-induced phosphorylation of Akt at Thr308 [3],effect on FBS-induced phosphorylation of Akt at Thr308 [4],effect on phosphorylation of PLK1 at Thr210 [5],effect on phosphorylation of PLK1 at Thr210 [6],effect on phosphorylation of Aurora A at Thr288 [7],effect on phosphorylation of Aurora A at Thr288 [8]
CNc1nc(-c2ccc3c(N)n[nH]c3c2)cc(N2C[C@@H](C(=O)NC3CCCCC3)CC[C@H]2C)n1 [GSK2334470],strongly reduced,strongly reduced,efficiently reduced,efficiently reduced,,,,
CCN1CCN(C(=O)Cc2ccc(Nc3ncc(F)c(Nc4ccc(C(=O)Nc5ccccc5Cl)cc4)n3)cc2)CC1 [Aur I],,,,,reduction in the phosphorylation of PLK1,reduction in the phosphorylation of PLK1,efficiently reduced,efficiently reduced
